# Measurements as given in patent US20220273683A1, “BORON-CONTAINING SMALL MOLECULES” (Bill & Melinda Gates Foundation, priority 2016, published 2022).
# What was measured:
# [1] = test system: Staphylococcus aureus, MRSA (ATCC 33591); assay: Antibacterial MIC assay (microbroth dilution, CLSI); type: cell-based; conditions: 35° C., 16-20 hours
# Text: (§1) All MIC testing of bacteria followed the Clinical and Laboratory Standards Institute (CLSI) guidelines for antimicrobial testing of aerobic bacteria (Methods for Dilution Antimicrobial Susceptibility Tests for Bacteria that Grow Aerobically; Approved Standard—Tenth Edition, M07-A10; Performance Standards for Antimicrobial Susceptibility Testing; Twenty-fifth Informational Supplement, M100-S25).
# (§2) Briefly, the microbroth dilution MIC method was used to quantitatively measure the in vitro antibacterial activity of a compound against a given bacterial isolate. The following bacterial strains were evaluated: Staphylococcus aureus, MRSA (ATCC 33591) and Streptococcus pneumoniae (ATCC 49619). Bacteria were grown in cation-adjusted Mueller-Hinton broth, with additions as required per species growth requirements (e.g. 3% lysed horse blood for fastidious organisms such as S. pneumoniae). A direct colony suspension in saline was prepared from colonies on an overnight agar plate to achieve a turbidity equivalent to 0.5 McFarland standard, which was subsequently diluted into the assay plate to achieve 5×10^5 CFU/mL. Assays plates were prepared by 2-fold dilution of compound across the plate and included a positive growth control.
# [2] = test system: Streptococcus pneumoniae (ATCC 49619); assay: as above; type: cell-based; conditions: 3% lysed horse blood, 35° C., 16-20 hours
# Text: as §1, §2
SMILES,"MIC Staphylococcus aureus, MRSA (ATCC 33591) [1]",MIC Streptococcus pneumoniae (ATCC 49619) [2]
"C[C@@H]1CC[C@@]23CCC(=O)[C@H]2[C@]1(C)[C@H](OC(=O)COc1ccc2c(c1F)B(O)OC2)C[C@@](C)(CCO)[C@@H](O)[C@@H]3C [Compound 25, (3aR,4R,5R,7R,8S,9R,9aS,12R)-8-hydroxy-7-(2-hydroxyethyl)-4,7,9,12-tetramethyl-3-oxodecahydro-4,9a-propanocyclopenta[8]annulen-5-yl2-((7-fluoro-1-hydroxy-1,3-dihydrobenzo[c][1,2]oxaborol-6-yl)oxy)acetate]",B (0.5-2 is B),C (4-32 is C)
"COCC[C@]1(C)C[C@@H](OC(=O)COc2ccc3c(c2F)B(O)OC3)[C@]2(C)[C@H](C)CC[C@]3(CCC(=O)[C@H]32)[C@@H](C)[C@@H]1O [Compound 26, (3aR,4R,5R,7R,8S,9R,9aS,12R)-8-hydroxy-7-(2-methoxyethyl)-4,7,9,12-tetramethyl-3-oxodecahydro-4,9a-propanocyclopenta[8]annulen-5-yl2-((7-fluoro-1-hydroxy-1,3-dihydrobenzo[c][1,2]oxaborol-6-yl)oxy)acetate]",A (MIC of ≤0.25 is A),C (4-32 is C)
"C[C@@H]1CC[C@@]23CCC(=O)[C@H]2[C@]1(C)[C@H](OC(=O)COc1ccc2c(c1F)B(O)OC2)C[C@@](C)([C@@H]1CO1)[C@@H](O)[C@@H]3C [Compound 27, (3aR,4R,5R,7R,8S,9R,9aS,12R)-8-hydroxy-4,7,9,12-tetramethyl-7-((R)-oxiran-2-yl)-3-oxodecahydro-4,9a-propanocyclopenta[8]annulen-5-yl2-((7-fluoro-1-hydroxy-1,3-dihydrobenzo[c][1,2]oxaborol-6-yl)oxy)acetate]",A (MIC of ≤0.25 is A),B (0.5-2 is B)
"CSC[C@]1(C)C[C@@H](OC(=O)COc2ccc3c(c2F)B(O)OC3)[C@]2(C)[C@H](C)CC[C@]3(CCC(=O)[C@H]32)[C@@H](C)[C@@H]1O [Compound 29, (3aR,4R,5R,7R,8S,9R,9aS,12R)-8-hydroxy-4,7,9,12-tetramethyl-7-((methylthio)methyl)-3-oxodecahydro-4,9a-propanocyclopenta[8]annulen-5-yl2-((7-fluoro-1-hydroxy-1,3-dihydrobenzo[c][1,2]oxaborol-6-yl)oxy)acetate]",A (MIC of ≤0.25 is A),C (4-32 is C)
"C[C@@H]1CC[C@@]23CCC(=O)[C@H]2[C@]1(C)[C@H](OC(=O)COc1ccc2c(c1F)B(O)OC2)C[C@@](C)(C[S+](C)[O-])[C@@H](O)[C@@H]3C (stereo partly drawn) [Compound 30, (3aR,4R,5R,7R,8S,9R,9aS,12R)-8-hydroxy-4,7,9,12-tetramethyl-7-((methylsulfinyl)methyl)-3-oxodecahydro-4,9a-propanocyclopenta[8]annulen-5-yl2-((7-fluoro-1-hydroxy-1,3-dihydrobenzo[c][1,2]oxaborol-6-yl)oxy)acetate]",B (0.5-2 is B),C (4-32 is C)
"C[C@@H]1CC[C@@]23CCC(=O)[C@H]2[C@]1(C)[C@H](OC(=O)COc1ccc2c(c1F)B(O)OC2)C[C@@](C)(C=O)[C@@H](O)[C@@H]3C [Compound 31, (3aR,4R,5R,7R,8S,9R,9aS,12R)-7-formyl-8-hydroxy-4,7,9,12-tetramethyl-3-oxodecahydro-4,9a-propanocyclopenta[8]annulen-5-yl2-((7-fluoro-1-hydroxy-1,3-dihydrobenzo[c][1,2]oxaborol-6-yl)oxy)acetate]",A (MIC of ≤0.25 is A),B (0.5-2 is B)
"CNC[C@]1(C)C[C@@H](OC(=O)COc2ccc3c(c2F)B(O)OC3)[C@]2(C)[C@H](C)CC[C@]3(CCC(=O)[C@H]32)[C@@H](C)[C@@H]1O [Compound 32, (3aR,4R,5R,7S,8S,9R,9aS,12R)-8-hydroxy-4,7,9,12-tetramethyl-7-((methylamino)methyl)-3-oxodecahydro-4,9a-propanocyclopenta[8]annulen-5-yl2-((7-fluoro-1-hydroxy-1,3-dihydrobenzo[c][1,2]oxaborol-6-yl)oxy)acetate]",B (0.5-2 is B),C (4-32 is C)
"C[C@@H]1CC[C@@]23CCC(=O)[C@H]2[C@]1(C)[C@H](OC(=O)COc1ccc2c(c1F)B(O)OC2)C[C@@](C)(CN(C)C)[C@@H](O)[C@@H]3C [Compound 33, (3aR,4R,5R,7S,8S,9R,9aS,12R)-7-((dimethylamino)methyl)-8-hydroxy-4,7,9,12-tetramethyl-3-oxodecahydro-4,9a-propanocyclopenta[8]annulen-5-yl2-((7-fluoro-1-hydroxy-1,3-dihydrobenzo[c][1,2]oxaborol-6-yl)oxy)acetate]",B (0.5-2 is B),C (4-32 is C)
"CCNC[C@]1(C)C[C@@H](OC(=O)COc2ccc3c(c2F)B(O)OC3)[C@]2(C)[C@H](C)CC[C@]3(CCC(=O)[C@H]32)[C@@H](C)[C@@H]1O [Compound 34, (3aR,4R,5R,7S,8S,9R,9aS,12R)-7-((ethylamino)methyl)-8-hydroxy-4,7,9,12-tetramethyl-3-oxodecahydro-4,9a-propanocyclopenta[8]annulen-5-yl2-((7-fluoro-1-hydroxy-1,3-dihydrobenzo[c][1,2]oxaborol-6-yl)oxy)acetate]",C (4-32 is C),C (4-32 is C)
"CCCNC[C@]1(C)C[C@@H](OC(=O)COc2ccc3c(c2F)B(O)OC3)[C@]2(C)[C@H](C)CC[C@]3(CCC(=O)[C@H]32)[C@@H](C)[C@@H]1O [Compound 35, (3aR,4R,5R,7S,8S,9R,9aS,12R)-8-hydroxy-4,7,9,12-tetramethyl-3-oxo-7-((propylamino)methyl)decahydro-4,9a-propanocyclopenta[8]annulen-5-yl2-((7-fluoro-1-hydroxy-1,3-dihydrobenzo[c][1,2]oxaborol-6-yl)oxy)acetate]",C (4-32 is C),C (4-32 is C)
"CCCCNC[C@]1(C)C[C@@H](OC(=O)COc2ccc3c(c2F)B(O)OC3)[C@]2(C)[C@H](C)CC[C@]3(CCC(=O)[C@H]32)[C@@H](C)[C@@H]1O [Compound 36, (3aR,4R,5R,7S,8S,9R,9aS,12R)-7-((butylamino)methyl)-8-hydroxy-4,7,9,12-tetramethyl-3-oxodecahydro-4,9a-propanocyclopenta[8]annulen-5-yl2-((7-fluoro-1-hydroxy-1,3-dihydrobenzo[c][1,2]oxaborol-6-yl)oxy)acetate]",B (0.5-2 is B),C (4-32 is C)
"C[C@@H]1CC[C@@]23CCC(=O)[C@H]2[C@]1(C)[C@H](OC(=O)COc1ccc2c(c1F)B(O)OC2)C[C@@](C)(CNC1CC1)[C@@H](O)[C@@H]3C [Compound 37, (3aR,4R,5R,7S,8S,9R,9aS,12R)-7-((cyclopropylamino)methyl)-8-hydroxy-4,7,9,12-tetramethyl-3-oxodecahydro-4,9a-propanocyclopenta[8]annulen-5-yl2-((7-fluoro-1-hydroxy-1,3-dihydrobenzo[c][1,2]oxaborol-6-yl)oxy)acetate]",B (0.5-2 is B),C (4-32 is C)
"C[C@@H]1CC[C@@]23CCC(=O)[C@H]2[C@]1(C)[C@H](OC(=O)COc1ccc2c(c1F)B(O)OC2)C[C@@](C)(CN1CCC1)[C@@H](O)[C@@H]3C [Compound 38, (3aR,4R,5R,7S,8S,9R,9aS,12R)-7-(azetidin-1-ylmethyl)-8-hydroxy-4,7,9,12-tetramethyl-3-oxodecahydro-4,9a-propanocyclopenta[8]annulen-5-yl2-((7-fluoro-1-hydroxy-1,3-dihydrobenzo[c][1,2]oxaborol-6-yl)oxy)acetate]",B (0.5-2 is B),C (4-32 is C)
"C[C@@H]1CC[C@@]23CCC(=O)[C@H]2[C@]1(C)[C@H](OC(=O)COc1ccc2c(c1F)B(O)OC2)C[C@@](C)(CCN1CCC1)[C@@H](O)[C@@H]3C [Compound 39, (3aR,4R,5R,7R,8S,9R,9aS,12R)-7-(2-(azetidin-1-yl)ethyl)-8-hydroxy-4,7,9,12-tetramethyl-3-oxodecahydro-4,9a-propanocyclopenta[8]annulen-5-yl2-((7-fluoro-1-hydroxy-1,3-dihydrobenzo[c][1,2]oxaborol-6-yl)oxy)acetate]",C (4-32 is C),C (4-32 is C)
"C[C@@H]1CC[C@@]23CCC(=O)[C@H]2[C@]1(C)[C@H](OC(=O)COc1ccc2c(c1F)B(O)OC2)C[C@@](C)(CCN1CCCCC1)[C@@H](O)[C@@H]3C [Compound 40, (3aR,4R,5R,7R,8S,9R,9aS,12R)-8-hydroxy-4,7,9,12-tetramethyl-3-oxo-7-(2-(piperidin-1-yl)ethyl)decahydro-4,9a-propanocyclopenta[8]annulen-5-yl2-((7-fluoro-1-hydroxy-1,3-dihydrobenzo[c][1,2]oxaborol-6-yl)oxy)acetate]",C (4-32 is C),D (≥64 is D)
